From patent publication US20250186457A1, “USE OF AN ORGANOMETALLIC RUTHENIUM COMPOUND FOR THE PREVENTION AND/OR TREATMENT OF DISEASES AND/OR CONDITIONS RELATED TO CANCER IN AN INDIVIDUAL” (FACULDADE DE CIÊNCIAS DA UNIVERSIDADE DE LISBOA, priority 2022, published 2025)

Legend:
[1] = test system: proteins involved in MAPK and PI3K signaling pathways, in SW480 cells; conditions: SW480, 48 h, IC50 of PMC79
Method: Samples were processed for LC-MS/MS analysis (Chiva et al. 2018; Olivella et al. 2021). Protein identification and validation, and gene ontology, localization and network analysis were performed as previously described (Perkins et al., 1999; Beer et al., 2017; Perez-Riverol et al., 2022).
Values represent mean of at least three independent experiments.

SW480 cell line [2] = conditions: IC50 of PMC79, 48 h
Method: After 48 h, cells were processed according with (Teixeira et al., 2018). Slides were maintained at −20° C. until visualization in a fluorescence microscope (Leica DM 5000B, Leica Microsystems, Wetzlar, Germany).
DAPI ([…]), FITC (fluorescein isothiocyanate) and merged were obtained by fluorescence microscopy.

[3] = test system: KRAS, pAKT, total-AKT, pERK and total-ERK proteins, in LS174T cells; conditions: 48 h of incubation, KRAS mutation
Method: Preparation of total protein extracts of colorectal cancer cell lines (RKO, LS174T and SW480), SDS-PAGE and Western blots were performed as previously described (Alves et al., 2015).
The Antibodies used were anti-KRAS and β-actin (Sigma); anti-phospho p44/42 MAPK (Thr202/Tyr204) (pERK), anti-p44/42 total (ERK), anti-phospho Akt (Ser473) (pAKT) and anti-Akt total (Cell Signaling) (AKT); GAPDH (Gene Tex). Proteomic study
GAPDH immunoblot was used as a loading control. The results were obtained from at least three independent experiments.

SW480 cells = conditions: IC50 and 2×IC50, 48 h and 72 h
Method: SW480 cells were incubated with the dye and seeded according to the procedure recommended by CFSE package insert (BD Horizon™). […] After 48 h and 72 h, both floating and attached cells were collected, washed with PBS, centrifuged at 500 rpm for 10 min and the pellet resuspended in PBS before cytometer acquisition.
The effects on proliferation were also studied using carboxyfluorescein succinimidyl ester assay (CFSE). […] Thus, when cell proliferation is inhibited, we observe an increase of the intracellular fluorescence.
The FIG. 3 illustrates the quantification of CFSE median fluorescence intensity normalized to T0 after 48 and 72 h of incubation with IC50 and 2×IC50, in SW480 cell line. The values represent mean±S.D. of at least three independent experiments. Statistical analysis was performed by two-way ANOVA with Dunnett's multiple comparisons test. **P≤0.01; ***P≤0.001; ****P≤0.0001 compared with negative control.

breast cancer cell lines [4] = conditions: cited from earlier work
MDA-MB-231 = conditions: read-out: IC50 MDA-MB-231 (PMC79); breast cancer cell line; cited from earlier work
breast cancer cell lines [5] = conditions: cited from earlier work; remark: listed apart in the source
SW480 = conditions: IC50 value, 48 h
Method: Acquisition was performed using CytoFLEX Cytometer (Beckman Coulter, Brea, CA, USA).
The FIG. 4 illustrates the apoptotic cell death analysis.

[6] = test system: KRAS, pAKT, total-AKT, pERK and total-ERK proteins in RKO cells; assay: Western blot analysis, RKO cell line harboring wild-type KRAS; assay type: cell-based; conditions: 48 h with IC50 values
[7] = test system: KRAS, pAKT, total-AKT, pERK and total-ERK proteins, in SW480 cells; assay: Western blot analysis, SW480 cells harboring KRAS mutation; assay type: cell-based; conditions: 48 h at the IC50 concentration of each compound, KRAS mutated
Method: SW480 cells were exposed for 48 h, at the IC50 concentration of each compound before protein extraction and Western blot analysis.

A2780 = conditions: read-out: IC50 A2780; ovarian cancer cell line; cited from earlier work
breast cancer cell lines [8] = conditions: cited from earlier work; remark: listed apart in the source
SW480 cell line [9] = test system: SW480 cell line
Method: SW480 cell line was seeded in 6-well plates. […] 24 h and 48 h later, cells were collected and processed according to the method described in (Teixeira et al., 2018). Cell-cycle phase data analysis and quantification was performed using FlowJo 10.7.2 software.

SW480 cell line [10] = conditions: IC50 value, 48 h
Method: SW480 cell line was seeded in 12-well plates with one coverslip per well. […] After 48 hours of incubation, the cells were fixed and stained as previously described (Pilon et al., 2020). Representative images were obtained in a fluorescence microscope (Olympus motorized BX63F Upright Microscope) (Olympus@, Tokyo, Japan) at a magnification of 600×.
Representative images (×600) of DAPI (4′,6-diamidino-2-phenylindole), Phalloidin-AlexaFluor 568 and merged were obtained in a fluorescence microscope. The results were obtained from at least three independent experiments.

SW480 CRC cell line = conditions: read-out: IC50 in SW480 CRC cell line; Sulforhodamine B, 48 h
Method: (§1) The noncancerous NCM460 cell line derived from normal colon epithelial mucosa, was obtained from INCELL's (Moyer et al., 1996), and the colorectal cancer derived cell lines, SW480, LS174T and RKO, were obtained from American Type Culture Collection (ATCC). All cell lines were maintained at 37° C. under a humidified atmosphere containing 5% CO2. NCM460 and SW480 cells were grown in RPMI medium and LS174T and RKO cells in DMEM, all supplemented with 10% FBS and 1% penicillin/streptomycin. SW480 cell were seeded normally at a concentration of 1×10^5 cells/ml except for some specific assays.
(§2) After 48 h of treatment, Sulforhodamine B was performed as previously described (Côrte-Real et al., 2019). Results were expressed relatively to the negative control (1), which was considered as 100% of cell growth.
(§3) Values represent mean+SD of at least three independent experiments.

[11] = test system: noncancerous NCM460 cell line derived from normal colon epithelial mucosa; conditions: read-out: IC50 in noncancerous cell line NCM460; Sulforhodamine B, 48 h
Method: as §1, §2, §3

SW480 cell line [12] = assay: Colony formation assay; conditions: 48 h with ¼ IC50 and ½ IC50, SW480
Method: SW480 cell line was seeded, at a concentration of 500 cells/ml, in 6-well plates. […] The negative control cells were treated with DMSO 0.1%. […] Medium was renewed every 3 days. Nine days after removing the treatments, cells were stained as previously described (Côrte-Real, Karas, Brás, et al., 2019).
The FIG. 1 illustrates the analysis of the colony formation ability, after 48 h of incubation with ¼ IC50 and ½ IC50, in SW480 cell line. […] The values represent mean±S.D. of at least three independent experiments. Statistical analysis was performed by one-way ANOVA with Dunnett's multiple comparisons test. ****P≤ 0.0001 compared with negative control.

MCF7 = conditions: breast cancer cell line; cited from earlier work
SW480 cell line [13] = assay: Wound healing assay; conditions: IC50 and 2×IC50, 12 h
Method: SW480 cell line was seeded at a concentration of 7×10^5 cells/ml, in 6-well plates. […] The negative control cells were treated with DMSO 0.1%. Each condition was photographed at 0 h, 4 h, 8 h and 12 h. To analyze the data and measure the wound size at each time-point ImageJ 1.53a software was used.
Values represent mean±S.D. of at least three independent experiments. Statistical analysis was performed by one-way ANOVA with Turkey's multiple comparisons test. *P≤0.05; ***P≤0.001 compared with negative control.

## O=S(=O)([O-])C(F)(F)F.OCc1ccnc(-c2cc(CO)ccn2)c1.[Ru+2].c1cc[cH-]c1.c1ccc(P(c2ccccc2)c2ccccc2)cc1 [PMC79, ({2,2′-bipyridine}-4,4′-diyldimethanol-k^2N, N′)(η^5-cyclopentadienyl) (6riphenylphosphine) ruthenium (II) triflate]
[1]
  Abundance Ratio (log2): (pmc79)/(Control), AKT1: −0.4039
  Abundance Ratio (log2): (pmc79)/(Control), AKT2: −0.2506
  Abundance Ratio (log2): (pmc79)/(Control), EGFR: −0.948
  Abundance Ratio (log2): (pmc79)/(Control), ERK1: −0.3601
  Abundance Ratio (log2): (pmc79)/(Control), KRAS: −0.4019
  Abundance Ratio (log2): (pmc79)/(Control), MEK1: −0.5421
  Abundance Ratio (log2): (pmc79)/(Control), MEK2: −0.2365
  Abundance Ratio (log2): (pmc79)/(Control), MTOR: −1.326
  Abundance Ratio (log2): (pmc79)/(Control), PIK3C3: −0.1795
  Abundance Ratio (log2): (pmc79)/(Control), PIK3R4: −0.5555
[1]; EGFR, KRAS, MEK 1, MEK 2, ERK1, PIK3, AKT1, AKT2, MTOR
  abundance of all proteins involved in KRAS signaling pathways versus control: less abundant
SW480 cell line [2]
  TUNEL positive cells: increase of the number of apoptotic cells (TUNEL positive)
[3]
  expression of KRAS, pERK, total-ERK, pAKT and total-AKT in LS174T: able to inhibit the expression
SW480 cells
  proliferation (CFSE median fluorescence intensity): decrease in proliferation under all conditions
Breast cancer cell lines [4]
  apoptosis (Annexin V stained cells) in breast cancer cell lines: induced apoptosis
MDA-MB-231
  IC50: 2100 nM
Breast cancer cell lines [5]
  mitochondria morphology and actin cytoskeleton in breast cancer cell lines: induced alterations in mitochondria morphology
SW480
  necrotic cells (AV−/PI+): 10%
  percentage of apoptotic cells (AV+/PI−; AV+/PI+): 74%
[6]
  expression of KRAS, pERK, total-ERK, pAKT and total-AKT in RKO: no effect
[7]
  expression of KRAS, pERK, total-ERK, pAKT and total-AKT in SW480: inhibit to a very high extent
A2780
  IC50: 3.9 µM
Breast cancer cell lines [8]
  proliferation / colony formation ability in breast cancer cell lines: inhibited proliferation by decreasing colony formation ability
SW480 cell line [9]; IC50 of PMC79, 24 h
  cell cycle alteration at 24 h: cell cycle arrest at G0/G1 phase
SW480 cell line [9]; IC50 of PMC79, 48 h
  cell cycle alteration at 48 h: increase of sub-G1 population
SW480 cell line [10]
  F-actin organization and morphology: affect cell-cell adhesion and intercellular contacts establishment
SW480 CRC cell line
  IC50: 40 µM
[11]
  IC50: 44 µM
SW480 cell line [12]
  clonogenic ability (colony formation): significantly decreased the clonogenic ability
MCF7
  IC50: 5.9 µM
SW480 cell line [13]
  percentage of wound closure: decreased the percentage of wound closure in a dose-dependent manner

## N.N.[Cl][Pt][Cl] [cisplatin, reference compound]
[6]
  expression of KRAS, pERK, total-ERK, pAKT and total-AKT in RKO: The same was also observed
[7]
  expression of KRAS, pERK, total-ERK, pAKT and total-AKT in SW480: not observed
